Laboratory results: BindingDB's records for doi:10.1021/jm990250u (Hoechst Marion Roussel, 1999)
pIC50: −log10 of the molar value.

Biological target: Stromelysin-1 (Homo sapiens, UniProt P08254)
Experiment: Inhibitory concentration against human matrix metalloprotease-3 (MMP-3)

Sequence of Stromelysin-1 (P08254 whole entry): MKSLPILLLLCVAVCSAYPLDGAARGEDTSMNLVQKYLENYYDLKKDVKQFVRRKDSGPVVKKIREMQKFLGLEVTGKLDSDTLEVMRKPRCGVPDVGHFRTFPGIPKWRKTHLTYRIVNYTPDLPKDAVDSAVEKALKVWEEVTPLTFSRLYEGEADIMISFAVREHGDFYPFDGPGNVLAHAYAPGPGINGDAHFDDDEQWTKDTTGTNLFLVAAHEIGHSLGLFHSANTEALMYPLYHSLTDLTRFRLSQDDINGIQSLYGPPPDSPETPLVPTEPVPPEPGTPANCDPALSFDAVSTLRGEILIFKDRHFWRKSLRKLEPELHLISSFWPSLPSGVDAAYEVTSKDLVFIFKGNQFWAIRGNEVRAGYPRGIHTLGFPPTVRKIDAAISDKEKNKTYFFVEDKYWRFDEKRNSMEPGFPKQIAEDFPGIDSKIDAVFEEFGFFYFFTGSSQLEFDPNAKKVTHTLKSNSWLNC

Row | pIC50 | Structure (SMILES)
1 | 5.00 | CCCCCCCCCCCCCCCCS(=O)(=O)N1Cc2ccccc2CC1C(=O)NO (configuration not stated) [2-(Hexadecane-1-sulfonyl)-1,2,3,4-tetrahydro-isoquinoline-3-carboxylic acid hydroxyamide]
2 | 5.00 | O=C(NO)C1Cc2ccccc2CN1S(=O)(=O)Cc1ccccc1 (configuration not stated) [2-Phenylmethanesulfonyl-1,2,3,4-tetrahydro-isoquinoline-3-carboxylic acid hydroxyamide]

Further lines, the compound ahead of its results:

Row | Structure (SMILES) | pIC50
3 | CSc1nccc(-c2ccc(S(=O)(=O)N3Cc4ccccc4CC3C(=O)O)s2)n1 (configuration not stated) | 5.00
4 | O=C(NO)C1Cc2ccccc2CN1S(=O)(=O)c1cc(Br)c(Br)s1 (configuration not stated) [2-(4,5-Dibromo-thiophene-2-sulfonyl)-1,2,3,4-tetrahydro-isoquinoline-3-carboxylic acid hydroxyamide] | 5.00
5 | O=C(NO)C1Cc2ccccc2CN1S(=O)(=O)c1cc(S(=O)(=O)c2ccccc2)cs1 (configuration not stated) [2-(4-Benzenesulfonyl-thiophene-2-sulfonyl)-1,2,3,4-tetrahydro-isoquinoline-3-carboxylic acid hydroxyamide] | 5.00
6 | O=C(Nc1cccc(S(=O)(=O)N2Cc3ccccc3CC2C(=O)NO)c1)c1ccccc1O (configuration not stated) [2-[3-(2-Hydroxy-benzoylamino)-benzenesulfonyl]-1,2,3,4-tetrahydro-isoquinoline-3-carboxylic acid hydroxyamide] | 5.00
7 | COc1ccc(S(=O)(=O)N2Cc3ncn(C)c3C[C@@H]2C(=O)O)cc1 [(R)-5-(4-Methoxy-benzenesulfonyl)-1-methyl-4,5,6,7-tetrahydro-1H-imidazo[4,5-c]pyridine-6-carboxylic acid] | 5.00
